In patent US20150307460A1, “Substituted Triazoles and Imidazoles and Their Use as Fungicides” (BASF SE, priority 2012, published 2015):

These compounds were tested on Phytophthora infestans (assay: not given). Details: 7 days after inoculation, control = 100%.
Type: cell-based

In order of rising “CM2 Growth (%) at 31 ppm Phytin” value:
1. OC1(c2ccc(-c3ccccc3)cc2)CCCCC1n1cncn1 (stereo not drawn) [Compound I-12]  41%
2. OC1(c2ccc(Oc3ccc(Cl)cc3)cc2)CCCCC1n1cncn1 (stereo not drawn) [Compound I-11, 1-[4-(4-chlorophenoxyl)phenyl]-2-(1,2,4-triazol-1-yl)cyclohexanol]  57%
3. OC1(c2cccc(-c3ccc(Cl)cc3)c2)CCCCC1n1cncn1 (stereo not drawn) [Compound I-19]  73%
4. OC1(c2ccc(Cl)cc2)CCCCC1n1cncn1 (stereo not drawn) [reference compound]  78%
5. OC1(c2ccc(F)cc2)CCCCC1n1cncn1 (stereo not drawn) [Example No. 28 of EP 0 152 031, reference compound]  93%
6. OC1(c2ccccc2)CCCCC1n1cncn1 (stereo not drawn) [Example No. 25 of EP 0 152 031, reference compound]  94%

What follows are compounds tested on Botrytis cinerea (assay: Microtiterplate test: activity against the grey mold Botrytis cinerea (Botrci), also comparison test CM1). Details: 7 days after inoculation, control = 100%.
Type: cell-based

In order of rising “CM1 Growth (%) at 8 ppm Botrci” value:
1. OC1(c2ccc(Oc3ccc(Cl)cc3)cc2)CCCCC1n1cncn1 (stereo not drawn) [Compound I-11, 1-[4-(4-chlorophenoxyl)phenyl]-2-(1,2,4-triazol-1-yl)cyclohexanol]  0%
2. OC1(c2ccc(-c3ccccc3)cc2)CCCCC1n1cncn1 (stereo not drawn) [Compound I-12]  0%
3. OC1(c2cccc(-c3ccc(Cl)cc3)c2)CCCCC1n1cncn1 (stereo not drawn) [Compound I-19]  0%
4. OC1(c2ccc(-c3ccc(Cl)cc3)cc2)CCCCC1n1cncn1 (stereo not drawn) [Compound I-15]  0%
5. OC1(c2ccc(F)cc2)CCCCC1n1cncn1 (stereo not drawn) [Example No. 28 of EP 0 152 031, reference compound]  40%
6. OC1(c2ccccc2)CCCCC1n1cncn1 (stereo not drawn) [Example No. 25 of EP 0 152 031, reference compound]  70%

What follows are compounds tested on Puccinia recondita (assay: Green house CG1: preventative control of brown rust on wheat caused by Puccinia recondita (Puccrt P1)). Details: 150 ppm spray, wheat seedlings, % diseased leaf area, untreated control 90.
Type: in vivo
Description: The spray solutions were prepared in several steps: The stock solution were prepared: a mixture of acetone and/or dimethylsulfoxide and the wetting agent/emulsifier Wettol, which is based on ethoxylated alkylphenoles, in a relation (volume) solvent-emulsifier of 99 to 1 was added to 25 mg of the compound to give a total of 5 ml. Water was then added to total volume of 100 ml. This stock solution was diluted with the described solvent-emulsifier-water mixture to the given concentration. CG1 Preventative Control of Brown Rust on Wheat Caused by Puccinia recondita (Puccrt P1) The first two developed leaves of pot-grown wheat seedling were sprayed to run-off with an aqueous suspension, containing the concentration of active ingredient or their mixture as described below. The next day the plants were inoculated with spores of Puccinia recondita. […] The extent of fungal attack on the leaves was visually assessed as % diseased leaf area.

In order of rising “CG1 Disease (%) at 150 ppm Puccrt P1” value:
1. OC1(c2ccc(-c3ccc(F)cc3)cc2)CCCCCC1n1cncn1 (stereo not drawn)  10%
2. OC1(c2ccc(Cl)cc2)CCCCCC1n1cncn1 (stereo not drawn) [reference compound]  30%

What follows are compounds tested on Septoria tritici (assay: Microtest: activity against leaf blotch on wheat caused by Septoria tritici (Septtr), also comparison test CM3). Details: 7 days after inoculation, control = 100%.
Type: cell-based

In order of rising “CM3 Growth (%) at 8 ppm Septtr” value:
1. OC1(c2ccc(Oc3ccc(Cl)cc3)cc2)CCCCC1n1cncn1 (stereo not drawn) [Compound I-11, 1-[4-(4-chlorophenoxyl)phenyl]-2-(1,2,4-triazol-1-yl)cyclohexanol]  0%
2. OC1(c2ccc(-c3ccccc3)cc2)CCCCC1n1cncn1 (stereo not drawn) [Compound I-12]  1%
3. OC1(c2cccc(-c3ccc(Cl)cc3)c2)CCCCC1n1cncn1 (stereo not drawn) [Compound I-19]  1%
4. OC1(c2ccc(-c3ccc(Cl)cc3)cc2)CCCCC1n1cncn1 (stereo not drawn) [Compound I-15]  2%
5. OC1(c2ccc(Cl)cc2)CCCCC1n1cncn1 (stereo not drawn) [reference compound]  52%
6. OC1(c2ccccc2)CCCCC1n1cncn1 (stereo not drawn) [Example No. 25 of EP 0 152 031, reference compound]  80%
7. OC1(c2ccc(F)cc2)CCCCC1n1cncn1 (stereo not drawn) [Example No. 28 of EP 0 152 031, reference compound]  83%
